This test has as its system Guinea-Pig Colon Entero-Chromaffin Cells. In words: Release of serotonin (5HT) from guinea-pig colon entero-chromaffin cells, organ bath, HPLC. The class given is cell-based, guinea-pigs. The following applies: guinea-pig proximal colon. The procedure:
Male guinea-pigs, 200-400 g are stunned and bled. Segments of the proximal colon are removed and suspended, as described by Trendelenburg in Arch. Exp. Path. Pharmakol., 81, 55-129 (1917), in a 20 ml organ bath. The tissue is bathed with a modified Krebs solution (NaCl 118.6; CaCl2 2.7; KCl 4.7; KH2 PO4 1.2; MgSO4 0.1; NaHCO3 25.0; and glucose 5.6 mM), maintained at 37° C. 5-HT is determined by high-performance liquid chromatography with electro-chemical detection. […] To individual organ baths the following agents are added prior to the addition of physostigmine (1 microM): 1) no addition (negative control), 2) atropine (0.2 microM) (positive control), 3) hexamethonium (100 microM) (positive control), 4) tegaserod, 5) cilansetron, 6) prucalopride, 7) A-85380, 8) fedotozine, 9) chlordiazepoxide, 10) CGP49823, 11) buproprion, 12) fluvoxamine, 13) tegaserod plus cilansetron, 14) tegaserod plus prucalopride, 15) tegaserod plus A-85380, 16)-tegaserod plus fedotozine, 17) tegaserod plus chlordiazepoxide, 18) tegaserod plus SDZ-NKT-343, 19) tegaserod plus buproprion, or 20) tegaserod plus fluvoxamine. The combination of agents results in an amplification of the reduction of physostigmine-induced serotonin outflow as compared to any of the agents alone.

On to `CN1[C@@H]2CC[C@H]1C[C@@H](OC(=O)C(CO)c1ccccc1)C2` (some centres unmarked) [atropine], for which the “luminal outflow of 5-HT” value (0.2 microM) is “significantly reduced”. As to `C[N+](C)(C)CCCCCC[N+](C)(C)C` [hexamethonium], under “100 microM”, the “luminal outflow of 5-HT” value was “significantly reduced”.

The values are drawn from patent US20080090878A1, “Pharmaceutical combinations and their use in treating gastrointestinal and abdominal viscera disorders” (priority 1999, published 2008).
